# Experimental data: ChEMBL document CHEMBL1149353, “Exploring alternative Zn-binding groups in the design of HDAC inhibitors: squaric acid, N-hydroxyurea, and oxazoline analogues of SAHA” (Bioorg Med Chem Lett, 2006)
# The source made the active and inactive calls. The rule behind the calls is not given here.
# Biological target: Histone deacetylase (Homo sapiens) (UniProt Q13547+O15379+Q9UBN7+Q92769+Q9UQL6+Q8WUI4+Q9BY41+Q96DB2+P56524+Q9UKV0+Q969S8)
# Assay: Inhibition of HDAC at <1 uM
# Assay type: protein assay
row,SMILES,Activity
1,O=C(CCCCNc1c(O)c(=O)c1=O)Nc1ccccc1,inactive
2,O=C(CCCCCCNc1c(O)c(=O)c1=O)Nc1ccccc1,inactive
3,O=C(CCCC/N=c1/c(S)c(O)c1=O)Nc1ccccc1,inactive
4,O=C(CCCCCNc1c(O)c(=O)c1=O)Nc1ccccc1,inactive
5,O=C(CCCCCCC1=N[C@@H](CO)CO1)Nc1ccccc1,inactive
6,O=C(CCCCCCC1=N[C@@H](COCc2ccccc2)CO1)Nc1ccccc1,inactive
7,COc1ccc(COC(CCCCCNC(=O)NO)C(=O)Nc2ccccc2)cc1 (stereo not drawn),inactive
8,CSc1c(NCCCCCCC(=O)Nc2ccccc2)c(=O)c1=O,inactive
9,O=C(CCCCC/N=c1/c(S)c(O)c1=O)Nc1ccccc1,inactive
10,CSc1c(NCCCCCC(=O)Nc2ccccc2)c(=O)c1=O,inactive
11,CN(O)c1c(SCCCCC(=O)Nc2ccccc2)c(=O)c1=O,inactive
12,O=C(CCCCCC/N=c1/c(S)c(O)c1=O)Nc1ccccc1,inactive
13,CSc1c(NCCCCC(=O)Nc2ccccc2)c(=O)c1=O,inactive
